Source: PubChem BioAssay AID256 (DTP/NCI, 2004)
Where “and” joins values, the source holds several entries; their conditions need not be identical. Equal values may be shown once. Toxic doses and inconclusive results are not listed.

System: CD2F1 mice, L1210 leukemia ip, survival T/C
Assay: NCI In Vivo Anticancer Drug Screen. Data for tumor model L1210 Leukemia (intraperitoneal) in CD2F1 (CDF1) mice
Settings: higher = longer survival
Summary of the method: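 Ratio T/C, where T is the treated-group value and C the vehicle-dosed control value, from mice implanted with a transplantable tumor.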

[1] = endpoint: mean survival time, dose: 25.0 mg/kg/injection, schedule: Q01DX009 (ip), vehicle: saline with Tween-80
[2] = endpoint: mean survival time, dose: 100.0 mg/kg/injection, schedule: Q04DX003 (ip), vehicle: saline with Tween-80
[3] = endpoint: mean survival time, dose: 100.0 mg/kg/injection, schedule: Q01DX009 (ip), vehicle: saline with Tween-80
[4] = endpoint: mean survival time, dose: 200.0 mg/kg/injection, schedule: Q01DX009 (ip), vehicle: saline with Tween-80
[5] = endpoint: mean survival time, dose: 100.0 mg/kg/injection, schedule: Q04DX002 (ip), vehicle: saline with Tween-80
[6] = endpoint: mean survival time, dose: 100.0 mg/kg/injection, schedule: Q01DX001 (ip), vehicle: saline with Tween-80
[7] = endpoint: mean survival time, dose: 200.0 mg/kg/injection, schedule: Q01DX001 (ip), vehicle: saline with Tween-80
[8] = endpoint: mean survival time, dose: 200.0 mg/kg/injection, schedule: Q04DX003 (ip), vehicle: saline with Tween-80
[9] = endpoint: mean survival time, dose: 400.0 mg/kg/injection, schedule: Q04DX003 (ip), vehicle: saline with Tween-80
[10] = endpoint: mean survival time, dose: 6.25 mg/kg/injection, schedule: Q04DX003 (ip), vehicle: saline
[11] = endpoint: mean survival time, dose: 25.0 mg/kg/injection, schedule: Q04DX003 (ip), vehicle: saline

## O=C(O)CC1C(=O)OC2C3COC(=O)c4cc(O)c(O)c(O)c4-c4c(cc(O)c(O)c4O)C(=O)OC2C(OC(=O)c2cc(O)c(O)c4c2C1C(O)C(=O)O4)C(OC(=O)c1cc(O)c(O)c(O)c1)O3 (stereo unspecified)
endpoint: median survival time, dose: 3.12 mg/kg/injection, schedule: Q01DX009 (ip), vehicle: saline
  T/C: 102 % of control
endpoint: median survival time, dose: 6.25 mg/kg/injection, schedule: Q01DX009 (ip), vehicle: saline
  T/C: 98 % of control
endpoint: median survival time, dose: 12.5 mg/kg/injection, schedule: Q01DX009 (ip), vehicle: saline
  T/C: 101 % of control
endpoint: median survival time, dose: 25.0 mg/kg/injection, schedule: Q01DX009 (ip), vehicle: saline
  T/C: 98 % of control
endpoint: median survival time, dose: 50.0 mg/kg/injection, schedule: Q01DX009 (ip), vehicle: saline
  T/C: 100 % of control

## CCCCC(=O)N(c1ccc(Nc2c3ccccc3nc3cc([N+](=O)[O-])ccc23)cc1)S(C)(=O)=O
endpoint: mean survival time, dose: 2.1 mg/kg/injection, schedule: Q04DX003 (ip), vehicle: Klucel (hydroxypropylcellulose) (HPC)
  T/C: 117 % of control
[1]
  T/C: 96 % of control
[2]
  T/C: 98 % of control
endpoint: mean survival time, dose: 100.0 mg/kg/injection, schedule: Q04DX003 (ip), vehicle: saline
  T/C: 167 % of control
endpoint: mean survival time, dose: 150.0 mg/kg/injection, schedule: Q04DX003 (ip), vehicle: saline with Tween-80
  T/C: 93 % of control
endpoint: mean survival time, dose: 200.0 mg/kg/injection, schedule: Q04DX003 (ip), vehicle: saline
  T/C: 113 % of control

## Oc1cc2ccccc2c(-c2c(O)c(O)cc3ccccc23)c1O
endpoint: mean survival time, dose: 12.5 mg/kg/injection, schedule: Q01DX009 (ip), vehicle: saline with Tween-80
  T/C: 103 % of control
[1]
  T/C: 100 % of control and 103 % of control
endpoint: mean survival time, dose: 50.0 mg/kg/injection, schedule: Q01DX009 (ip), vehicle: saline with Tween-80
  T/C: 103 % of control and 105 % of control
[3]
  T/C: 100 % of control and 109 % of control
[4]
  T/C: 96 % of control

## O=C(O)C(=O)C(O)C(O)C(O)CO.O=C(O)C(=O)C(O)C(O)C(O)CO.[NH-]C1CCCCC1[NH-].[Pt+2] (stereo unspecified)
endpoint: median survival time, dose: 3.12 mg/kg/injection, schedule: Q04DX003 (ip), vehicle: saline
  T/C: 110 % of control and 111 % of control
endpoint: median survival time, dose: 6.25 mg/kg/injection, schedule: Q04DX003 (ip), vehicle: saline
  T/C: 115 % of control and 112 % of control
endpoint: median survival time, dose: 12.5 mg/kg/injection, schedule: Q04DX003 (ip), vehicle: saline
  T/C: 122 % of control
endpoint: median survival time, dose: 50.0 mg/kg/injection, schedule: Q04DX003 (ip), vehicle: saline
  T/C: 185 % of control and 188 % of control
endpoint: median survival time, dose: 100.0 mg/kg/injection, schedule: Q04DX003 (ip), vehicle: saline
  T/C: 250 % of control and 270 % of control
endpoint: median survival time, dose: 200.0 mg/kg/injection, schedule: Q04DX003 (ip), vehicle: saline
  T/C: 175 % of control

## CCCCNC(=O)C1CC2c3cccc4[nH]cc(c34)CC2N(C)C1 (stereo unspecified)
endpoint: mean survival time, dose: 50.0 mg/kg/injection, schedule: Q04DX003 (ip), vehicle: saline with Tween-80
  T/C: 88 % of control
[2]
  T/C: 91 % of control

## O=S(O)O.O=S(O)O.[Co].[NH2-].[NH2-].[NH2-].[NH2-]
[5]
  T/C: 108 % of control
endpoint: mean survival time, dose: 200.0 mg/kg/injection, schedule: Q04DX002 (ip), vehicle: saline with Tween-80
  T/C: 108 % of control
endpoint: mean survival time, dose: 400.0 mg/kg/injection, schedule: Q04DX002 (ip), vehicle: saline with Tween-80
  T/C: 119 % of control

## Fc1c(F)c(F)c(-c2nnc(-c3c(F)c(F)c(F)c(F)c3F)o2)c(F)c1F
[6]
  T/C: 96 % of control
[7]
  T/C: 96 % of control
endpoint: mean survival time, dose: 400.0 mg/kg/injection, schedule: Q01DX001 (ip), vehicle: saline with Tween-80
  T/C: 95 % of control

## COC(=O)c1ccc(=O)c2nc3/c(=C/O)c(O)cc(=O)c3[nH]c12
endpoint: mean survival time, dose: 5.0 mg/kg/injection, schedule: Q04DX003 (ip), vehicle: saline with Tween-80
  T/C: 107 % of control
endpoint: mean survival time, dose: 10.0 mg/kg/injection, schedule: Q04DX003 (ip), vehicle: saline with Tween-80
  T/C: 90 % of control

## CCOC(=O)c1cnc[nH]c1=O
[2]
  T/C: 104 % of control
[8]
  T/C: 104 % of control
[9]
  T/C: 96 % of control

## NC(=O)c1ccc(OC(F)(F)C(F)Cl)cc1OC(F)(F)C(F)Cl (stereo unspecified)
endpoint: mean survival time, dose: 25.0 mg/kg/injection, schedule: Q04DX002 (ip), vehicle: saline with Tween-80
  T/C: 96 % of control
endpoint: mean survival time, dose: 50.0 mg/kg/injection, schedule: Q04DX002 (ip), vehicle: saline with Tween-80
  T/C: 101 % of control
[5]
  T/C: 101 % of control

## C#CCOc1c(C(=O)OCC)cnc2c1c(C)nn2CC
endpoint: mean survival time, dose: 100.0 mg/kg/injection, schedule: Q04DX003 (ip), vehicle: Klucel (hydroxypropylcellulose) (HPC)
  T/C: 101 % of control
endpoint: mean survival time, dose: 200.0 mg/kg/injection, schedule: Q04DX003 (ip), vehicle: Klucel (hydroxypropylcellulose) (HPC)
  T/C: 97 % of control
endpoint: mean survival time, dose: 400.0 mg/kg/injection, schedule: Q04DX003 (ip), vehicle: Klucel (hydroxypropylcellulose) (HPC)
  T/C: 101 % of control

## COc1ccc(OC)c(NC(=O)NNc2ccc([N+](=O)[O-])cc2[N+](=O)[O-])c1
[3]
  T/C: 88 % of control
[4]
  T/C: 91 % of control

## Nc1nc(=O)n(CCCOc2ccccc2NC(=O)c2ccc(S(=O)(=O)F)cc2)cc1-c1ccc(Cl)c(Cl)c1
endpoint: mean survival time, dose: 50.0 mg/kg/injection, schedule: Q01DX001 (ip), vehicle: saline with Tween-80
  T/C: 96 % of control
[6]
  T/C: 93 % of control
[7]
  T/C: 93 % of control

## C[n+]1ccccc1/C=C/c1ccccn1
endpoint: mean survival time, dose: 5.3 mg/kg/injection, schedule: Q01DX009 (ip), vehicle: saline with Tween-80
  T/C: 97 % of control
[10]
  T/C: 95 % of control
endpoint: mean survival time, dose: 8.0 mg/kg/injection, schedule: Q01DX009 (ip), vehicle: saline with Tween-80
  T/C: 100 % of control
endpoint: mean survival time, dose: 12.0 mg/kg/injection, schedule: Q01DX009 (ip), vehicle: saline with Tween-80
  T/C: 100 % of control
endpoint: mean survival time, dose: 12.5 mg/kg/injection, schedule: Q04DX003 (ip), vehicle: saline
  T/C: 98 % of control
endpoint: mean survival time, dose: 18.0 mg/kg/injection, schedule: Q01DX009 (ip), vehicle: saline with Tween-80
  T/C: 92 % of control
[11]
  T/C: 92 % of control

## Cc1cc(=O)cc(C)n1C
[2]
  T/C: 98 % of control
[8]
  T/C: 97 % of control
[9]
  T/C: 94 % of control

## COc1ccc(NC(=O)C(Cl)Cl)ccc1=O
[3]
  T/C: 96 % of control
[2]
  T/C: 97 % of control
[4]
  T/C: 95 % of control
[8]
  T/C: 92 % of control
[9]
  T/C: 98 % of control

## CC(N)c1ccccc1 (stereo unspecified)
endpoint: mean survival time, dose: 37.5 mg/kg/injection, schedule: Q04DX003 (ip), vehicle: saline
  T/C: 98 % of control
endpoint: mean survival time, dose: 75.0 mg/kg/injection, schedule: Q01DX001 (ip), vehicle: saline
  T/C: 96 % of control
endpoint: mean survival time, dose: 75.0 mg/kg/injection, schedule: Q04DX003 (ip), vehicle: saline
  T/C: 100 % of control
endpoint: mean survival time, dose: 150.0 mg/kg/injection, schedule: Q01DX001 (ip), vehicle: saline
  T/C: 100 % of control
endpoint: mean survival time, dose: 150.0 mg/kg/injection, schedule: Q04DX003 (ip), vehicle: saline
  T/C: 100 % of control
endpoint: mean survival time, dose: 300.0 mg/kg/injection, schedule: Q01DX001 (ip), vehicle: saline
  T/C: 106 % of control

## Brc1ccc(Sc2ccccc2)cc1
[3]
  T/C: 98 % of control
[4]
  T/C: 93 % of control
endpoint: mean survival time, dose: 400.0 mg/kg/injection, schedule: Q01DX009 (ip), vehicle: saline with Tween-80
  T/C: 96 % of control

## NCCCOCCOCCOCCOCCCN
endpoint: mean survival time, dose: 25.0 mg/kg/injection, schedule: Q04DX002 (ip), vehicle: saline
  T/C: 105 % of control
endpoint: mean survival time, dose: 50.0 mg/kg/injection, schedule: Q04DX002 (ip), vehicle: saline
  T/C: 101 % of control
endpoint: mean survival time, dose: 100.0 mg/kg/injection, schedule: Q01DX001 (ip), vehicle: saline sonified
  T/C: 97 % of control
endpoint: mean survival time, dose: 100.0 mg/kg/injection, schedule: Q04DX002 (ip), vehicle: saline
  T/C: 101 % of control

## CCCCCCCCCCCCCCCCC(C)(O)C#CC(C)(O)CCCCCCCCCCCCCCCC (stereo unspecified)
endpoint: mean survival time, dose: 100.0 mg/kg/injection, schedule: Q01DX005 (ip), vehicle: other
  T/C: 97 % of control
endpoint: mean survival time, dose: 200.0 mg/kg/injection, schedule: Q01DX005 (ip), vehicle: other
  T/C: 97 % of control
endpoint: mean survival time, dose: 400.0 mg/kg/injection, schedule: Q01DX005 (ip), vehicle: other
  T/C: 101 % of control

## OCC1OC(n2ccc3c(NO)ncnc32)C(O)C1O (stereo unspecified)
endpoint: mean survival time, dose: 5.0 mg/kg/injection, schedule: Q01DX001 (ip), vehicle: saline
  T/C: 111 % of control
endpoint: mean survival time, dose: 10.0 mg/kg/injection, schedule: Q01DX001 (ip), vehicle: saline
  T/C: 118 % of control

## COC1OC(CO)C(OC)C(OC)C1NC(C)=O (stereo unspecified)
endpoint: mean survival time, dose: 100.0 mg/kg/injection, schedule: Q01DX001 (ip), vehicle: saline + alcohol
  T/C: 101 % of control
endpoint: mean survival time, dose: 200.0 mg/kg/injection, schedule: Q01DX001 (ip), vehicle: saline + alcohol
  T/C: 103 % of control
endpoint: mean survival time, dose: 400.0 mg/kg/injection, schedule: Q01DX001 (ip), vehicle: saline + alcohol
  T/C: 97 % of control

## O=CCCOCCCl
[2]
  T/C: 103 % of control
[8]
  T/C: 95 % of control
[9]
  T/C: 100 % of control

## CC(Cl)CN(CC(C)Cl)c1ccc2c(c1)Cc1cc([N+](=O)[O-])ccc1-2 (stereo unspecified)
[2]
  T/C: 93 % of control
[8]
  T/C: 96 % of control
[9]
  T/C: 96 % of control

## ClCCCN1CCCCC1CCl (stereo unspecified)
endpoint: mean survival time, dose: 3.12 mg/kg/injection, schedule: Q04DX003 (ip), vehicle: saline
  T/C: 104 % of control
[10]
  T/C: 113 % of control
[11]
  T/C: 173 % of control
